The source of these data is PMC10897929 (2024).

The test system of assay [1] is CSS.3_cut3 (DNA, aptamer) GGACGACGCCAGAAGTTTACGAGGATATGGTAACATAGTCGT
Briefly: BLI, steady state fit. As to conditions: Na+ 123 mM (NaCl), K+ 3.5 mM, Ca2+ 2.5 mM, Mg2+ 0.7 mM; sISF, 10 mM HEPES, 30 °C. (In general: Biolayer interferometry detects binding as a change in optical thickness at a sensor tip.)

Assay [2] concerns CSS.3_cut5 (DNA, aptamer) GGACGACGCCAGAAGTTTACGAGGATATGGTAACATAGTC
The assay can be described thus: BLI, steady state fit. Particulars: Na+ 123 mM (NaCl), K+ 3.5 mM, Ca2+ 2.5 mM, Mg2+ 0.7 mM; sISF, 10 mM HEPES, 30 °C.

A word on the KD: it is the equilibrium constant for the complex coming apart. Higher therefore signals weaker binding. `C[C@]12CCC(=O)C=C1CC[C@@H]1[C@@H]2[C@@H](O)C[C@@]2(C)[C@H]1CC[C@]2(O)C(=O)CO`: the KD in assay [1] worked out at 990 nM; in assay [2] it was 4200 nM.
